One experiment addresses T1, PRL (Homo sapiens, UniProt P01236).
T1 construct: Full length PRL cDNA was generated by PCR; made in house; host or cells: Drosophila S2 cells
T1 sequence (P01236 29-227): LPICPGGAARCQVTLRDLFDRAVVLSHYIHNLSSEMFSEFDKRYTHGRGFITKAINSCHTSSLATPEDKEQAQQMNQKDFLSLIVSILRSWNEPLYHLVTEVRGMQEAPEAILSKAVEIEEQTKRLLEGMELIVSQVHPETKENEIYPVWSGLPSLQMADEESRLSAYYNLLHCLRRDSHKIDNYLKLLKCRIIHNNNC
Put plainly: Detection of PRL-CypB complexes by co-immunoprecipitation. Type of experiment: binding. Conditions: for interaction with PRL (co-immunoprecipitation): purified epitope-tagged recombinant proteins admixed, reducing agent or divalent cation. Here is the method:
Complexes were immunoprecipitated by the addition of 1 μg of polyclonal anti-histidine antibody (#sc-803, Santa Cruz Biotech) for one hour followed by roatation for one hour with 50 μl Protein-A beads. Precipiated complexes were separated by 15% SDS-PAGE and transferred to PVDF. Immunoblots were blocked for one hour at room temperature with 5% milk in PBS containing 1% TWEEN-20 (PBST) and immunoblotted with a monoclonal anti-myc antibody (1:1000, mAb 9E10) for one hour. Immunoblots were analyzed by incubation with an anti-mouse secondary antibody conjugated to horseradish peroxidase (1:2000, Boehringer Mannheim) for one hour followed by incubation with ECL Plus (Amersham Pharmacia Biotech) amnd exposure to Biomax film (Kodak).

Another experiment relates to Nb2 cells. Put plainly: Nb2 cell proliferation (3H-thymidine) to assess CypB modulation of somatolactogenic action. Type of experiment: cell-based, rat. Conditions: for enhancement of PRL-driven growth compared to cultures that received only PRL: Nb2 cells, added to PRL-containing medium, most prominent at 5-10 mM CypB and 50 pM PRL. Here is the method:
(§1) The effect of exogenous CypB on PRL-driven proliferation was examined with the rat Nb2 T-cell and the human T47D breast cancer line. […] This dose-dependent biphasic effect was most prominent at physiologic concentrations (5-10 mM) of CypB and PRL (50 pM) found in human serum. […] To determine the effect of CypB on cellular growth driven by the larger family of cytokines, to which PRL belongs, proliferation driven by interleukin-2 (IL-2), IL-3 and GH was examined.
Nb2-cells (5×10^4; PRL-dependent, rat T-lymphoma) were plated in each well of 96 well plates in a defined DMEM-serum free medium (0.1 mM 2-mercaptoethanol, 1% penicillin/streptomycin, and 1% ITS+(Calbiochem)). Cells were rested for 24 hours at 37° C. in this defined medium in the absence of PRL before the addition of 5-500 pM PRL (either as human pituitary isolated PRL, National Hormone and Pituitary Program, NIDDK; recombinant human PRL from E. coli, Genzyme; or recombinant human PRL from Drosophila S2 cells) alone or premixed with 1-2000 fold excess of purified CypB. Parallel studies were performed using human pituitary-derived GH (National Hormone and Pituitary Program, NIDDK). Cultures were incubated for 48 hours at 37° C. and proliferation was evaluated by the addition of 0.5 μCi of ^3H-thymidine for four hours followed by harvesting and scintillography. When stimulated with PRL alone, Nb2 cells yield sigmoid shaped growth curves that plateau at approximately 2 ng PRL/ml.

The test system of experiment [1] is IL-2- and IL-3-driven proliferation. Put plainly: IL-2- and IL-3-driven proliferation with added CypB. It counts as cell-based. Conditions: varying concentration of CypB. Here is the method: as §1
The test system of experiment [2] is T47D human breast cancer cells. Put plainly: Nuclear retrotranslocation of PRL by indirect anti-PRL immunofluorescence. It counts as cell-based. Conditions: defined T47D culture medium containing the co-mitogen EGF. As to the method:
Experiments were performed to examine the ability of CypB to enhance nuclear retrotranslocation of PRL, and thereby PRL-driven proliferation.
The role of this sequence in the CypB-mediated retrotranslocation of PRL, and its associated enhancement of growth was tested by mutagenic approaches. The putative nuclear localization sequence of CypB was deleted in the mutant CypB-NT.

Experimental findings from US7902341B2, “Methods and compositions for modulating somatolactogenic functions” (Trustees of the University of Pennsylvania, priority 1999, dated 2011) are described below.

As to “CypA: recombinant form of the highly homologous cyclophilin family member [reference compound]”, the “interaction with PRL (co-immunoprecipitation)” value with PRL is “failed to interact with PRL”. The “enhancement of PRL-driven growth compared to cultures that received only PRL” value in the experiment with Nb2 cells is “did not result in any potentiation”.
For the substance “CypB: cyclophilin family cis-trans peptidyl prolyl isomerase; recombinant His-tagged wild-type protein (SEQ ID NO: 1)”, in the experiment with PRL (human serum), the “interaction with PRL in human serum (co-immunoprecipitation; binding to sepharose-conjugated recombinant CypB)” value is “direct co-immunoprecipitation of PRL with CypB from human serum”. Also, in the experiment with PRL, the “interaction with PRL (co-immunoprecipitation)” value is given as “direct interaction of CypB with PRL”. Besides, the “enhancement of PRL-driven growth compared to cultures that received only PRL” value with Nb2 cells is reported as “eight-fold”. Also, in the experiment on Nb2 cells (cell line not stated), the “enhancement of PRL-induced proliferation” value is “failed to enhance PRL-induced proliferation”. For the same substance, in the experiment with Nb2 cells (physiological concentrations of CypB, human pituitary-derived GH), the “enhancement of GH-driven proliferation compared to GH alone” value was “forty-fold”. In experiment [1], the “effect on IL-2-driven proliferation” value was “Neither IL-2- nor IL-3-driven proliferation was altered” and the “effect on IL-3-driven proliferation” value is listed as “Neither IL-2- nor IL-3-driven proliferation was altered”. For the same substance, the “T47D nuclei exhibiting anti-PRL immunofluorescence” value in experiment [2] was 95-100%.
